Experimental data from patent publication US10117948B2, “Selective arylation of dichalcogenides in biomolecules” (priority 2015, dated 2018).
In brackets after ≈: the same amount, converted by molar mass.

Key:
[1] = cited from earlier work
[2] = system: BT-474 cells (mammary gland cancer cells); assay: Screening of genistein antibody-drug conjugate against BT-474 cells; type: cell-based; settings: tested as ADC of genistein
Text: An antibody-drug conjugate (ADC) of genistein was screened against BT-474 cells (mammary gland cancer cells).

[3] = system: gram-positive bacteria and gram-negative bacteria; settings: due to the outer cell membrane; cited from earlier work
[4] = system: K. pneumoniea PSSP (MMX 1195, ATCC 49619); assay: MIC screening, vancomycin vs vancomycin/peptide conjugates; type: cell-based
Text: (§1) Vancomycin was conjugated to a variety of antibacterial peptides and screened against (a) resistant strains of gram-positive bacteria and b) gram-negative bacteria. See FIG. 20, FIG. 21, FIG. 22, and Table 3.

[5] = system: E. faecalis VRE (Van A) (MMX 486); assay: as above; type: cell-based; settings: Enterococcus faecalis
Text: as §1

[6] = system: K. pneumoniea KPC-1 (MMX 6902, ATCC BAA-1705); assay: as above; type: cell-based
Text: as §1

[7] = system: E. faecalis VSE: QC (MMX 101, ATCC 29212); assay: as above; type: cell-based; settings: Enterococcus faecalis, ATCC29212
Text: as §1

[8] = system: E. faecalis VRE (Van B) (MMX 202, ATCC 51299); assay: as above; type: cell-based; settings: Enterococcus faecalis
Text: as §1

[9] = system: A. baumannii Wild-type (MMX 1630, ATCC 19606); assay: as above; type: cell-based; settings: Acinetobacter baumannii, ATCC19606
Text: as §1

Compound | pKa [1] | toxicity to cells [2] | activity against gram-negative bacteria [3] | MIC [4] | MIC [5] | MIC [6] | MIC [7] | MIC [8] | MIC [9]
N[C@@H](C[SeH])C(=O)O [selenocysteine] | 5.47 | not toxic to cells | – | – | – | – | – | – | –
N[C@@H](CS)C(=O)O [cysteine] | 8.14 | – | – | – | – | – | – | – | –
CN[C@H](CC(C)C)C(=O)N[C@H]1C(=O)N[C@@H](CC(N)=O)C(=O)N[C@H]2C(=O)N[C@H]3C(=O)N[C@H](C(=O)N[C@H](C(=O)O)c4cc(O)cc(O)c4-c4cc3ccc4O)[C@H](O)c3ccc(c(Cl)c3)Oc3cc2cc(c3O[C@@H]2O[C@H](CO)[C@@H](O)[C@H](O)[C@H]2O[C@H]2C[C@](C)(N)[C@H](O)[C@H](C)O2)Oc2ccc(cc2Cl)[C@H]1O [vancomycin] | – | – | not active | 0.25 µg/mL (≈ 0.173 µM) | > 64 µg/mL | > 64 µg/mL | 4 µg/mL (≈ 2.76 µM) | 16 µg/mL (≈ 11 µM) | > 64 µg/mL
